Results taken from US20240197760A1, “ACTIVATORS OF INTEGRATED STRESS RESPONSE PATHWAY FOR PROTECTION AGAINST FERROPTOSIS” (Burke Neurological Institute, priority 2021, published 2024).

Columns and labels:
mouse primary neurons = test: Live-dead cell viability assay (calcein-AM / ethidium homodimer); format: cell-based; settings: 1 mM to 15 mM, 24 h, cultured mouse primary neurons
[1] = system: Creba, Crebb, Bdnf exon IV; test: Plasticity gene expression in human i.p.s. derived mature cortical neurons; format: cell-based; settings: increasing concentrations, 6 h
Method: Human iPSC line (C1-1) was previously generated from skin biopsy samples of newborn and had been fully characterized and passaged on MEF feeder layers (Wen et al. 2014). All studies followed institutional IRB and ISCRO protocols approved by University of Pennsylvania Perelman School of Medicine. Human iPSCs were differentiated into cortical neurons following the previously established protocol (Wen et al. 2014). Briefly, hiPSCs colonies were detached from the feeder layer with 1 mg/ml collagenase (Thermo Fisher Scientific) treatment for 30 min and suspended in embryonic body (EB) medium, consisting of bFGF-free iPSC medium supplemented with 2 μM Dorsomorphin (Tocris) and 2 μM A-83 (Tocris), in non-treated polystyrene plates for 4 days with a daily medium change. […]
The gene expression of Bndf exon IV, Creba and Crebb in human i.p.s. derived neurons were also assessed using two step qPCR. […] Quantitative RT-PCR was then performed using SYBR green (Applied Biosystems) and the StepOnePlus™ Real-Time PCR System (Applied Biosystems). Quantitative levels for all genes were normalized to the housekeeping gene GAPDH and expressed relative to the relevant control samples. […]

ATF4 = ATF4 chromatin immunoprecipitation sequencing in primary neurons; format: cell-based, mouse; settings: 10 mM, 6 h
Method: ChIP-seq was performed according to the ChIPmentation protocol with minor modifications. In brief, 40 million primary neurons were used for each condition. Cells were fixed in methanol free formaldehyde (1% final concentration) for 10 min at room temperature with slow rotation to allow the cross-linking of chromatin proteins and DNA. Cross-linking was stopped by incubation with 0.125 M glycine for 5 min at room temperature. The cells were washed twice with ice-cold phosphate-buffered saline (PBS) and 2 ml of cell scrapping solution was added cell were scrapped and collected in respective tubes. Tubes with cells were centrifuged at 2800 rpm for 10 min at 4° C. and supernatant was aspirated out. Cell pellets left in the tube were resuspended in 300 μl of 0.25% SDS sonication buffer (10 mM Tris-HCl [pH 8.0], 2 mM EDTA, 0.25% SDS, and protease inhibitor cocktail). The lysates were transferred to 1.5 ml TPX microtubes for sonication (Diagenode, Catalog number: 20190430) and sonicated by Biorupter sonication device (Diagenode) to shear genomic DNA into 200-600 bp fragments. The lysates were centrifuged to remove debris and were then diluted 1:1.5 in equilibration buffer (10 mM Tris-HCl [pH 8.0], 1 mM EDTA, 1.67% Triton X-100, 0.17% sodium deoxycholate, 233 mM NaCl, and protease inhibitor cocktail). […]

HEK293 cell line = settings: cited from earlier work

OC[C@H]1OC(O)C[C@@H](O)[C@@H]1O (stereo partly drawn) [2-DG, (4R,5S,6R)-6-(hydroxymethyl)oxane-2,4,5-triol]
toxicity / neuronal cell death in live-dead assay (mouse primary neurons): no toxicity | gene plasticity response (Creba, Crebb, Bdnf exon IV mRNA) [1]: gene plasticity response of neurons was still the same | ATF4 binding at Bdnf (ChIP-Seq) (ATF4): selective enrichment of ATF4 close to the transcription start site of Bdnf | ATF4 binding to other plasticity genes (ChIP-Seq) (ATF4): enhanced binding of ATF4 to several plasticity genes | Bdnf gene expression (HEK293 cell line): inhibit the Bdnf gene expression
